Measured values from US20260083769A1, “2-Aminopropane-1,3-Diol-Capped Cationic Peptoids for Nucleic Acid Delivery” (NUTCRACKER THERAPEUTICS, INC., priority 2022, published 2026).
Where two headings read alike, the source gives them in different places. Where a SMILES comes first, the peptide text is derived from it. [ ]: non-standard residue; d: D form. Gly(Nα-oleyl) = CCCCCCCC/C=C\CCCCCCCCNCC(=O)O; N(2-ethylhexyl)Gly = CCCCC(CC)CNCC(=O)O; Gly(N-dodecyl) = CCCCCCCCCCCCNCC(=O)O; N(CH(CH2OH)2)Gly = O=C(O)CNC(CO)CO; NDecylGly = CCCCCCCCCCNCC(=O)O

Key:
[1] = Apparent particle pKa, TNS fluorescence assay; assay type: physicochemical; settings: Table 5; apparent particle pKa of delivery vehicle
Experimental: The apparent particle pKa was assessed by a TNS fluorescence assay. Briefly, particles were diluted to 130 uM total lipid in TNS buffer ranging in pH 3-11 for 10 minutes with […] of TNS probe. The fluorescence was measured at room temperature in a plate reader ex 320/em 445. Fluorescence intensity was normalized to the minimal and maximal values and the pKa was determined by a 3 parameter fit to determine the half maximum of the curve.

[2] = Percent encapsulated mRNA, RiboGreen assay; assay type: physicochemical
Experimental: Percent encapsulation. The percentage of mRNA encapsulated within the delivery vehicle complexes containing Fluc mRNA was determined using a modified RiboGreen® assay. In general, formulated mRNA samples were diluted to 500 ng/ml in Tris-EDTA buffer with or without Triton-X™. RiboGreen® (Invitrogen) was added at a 200-fold dilution, and the plate was incubated for 5 minutes. Fluorescence was measured at Ex. […]/Em. 520 nm and encapsulated mRNA was calculated by taking the ratio of fluorescence for non-lysed particles versus lysed particles.
The mRNA concentration and the percentage of encapsulated mRNA were determined using a fluorescence-based Quant-iT™ RiboGreen® RNA Reagent Kit using a literature procedure. To determine the mRNA concentration, delivery vehicles were incubated with 2% Triton™ X-100 for 10 min to release entrapped mRNA, followed by addition of RiboGreen® RNA reagent. The fluorescence intensity of mRNA-RiboGreen® reagent complex (excitation at 485 nm and emission at 530 nm) was detected using a microplate reader. The ratio of fluorescence without and with Triton™ X-100 were used to calculate the percentage of encapsulated mRNA.

[3] = Zeta potential of delivery vehicles; assay type: physicochemical; settings: Table 5; delivery vehicle, pH 7 buffer; in mV (unit assumed)
Experimental: (§1) In one particular instance, the size and polydispersity (PDI) of delivery vehicles was measured by dynamic light scattering in PBS using a DynaPro® plate reader III. The zeta potential of delivery vehicles was determined using Nano-ZS™ particle analyzer. Zeta sample was diluted to 30 uM total lipid in a weakly buffered solution of 10 mM HEPES, 10 mM MES, 10 mM ammonium acetate pH 7. Measurements were collected in duplicate for over 30 run with the voltage manually set to […]

[4] = RBC hemolysis as metric for fusogenicity; assay type: cell-based; settings: sheep red blood cells (RBCs), 5% v/v
Experimental: RBC hemolysis was used as a metric for fusogenicity of LNPs at low pH. […] Particles were diluted to […] total lipid in well with 5% RBC solution and incubated at 37° C. for 45 min. Supernatant was collected and absorbance read on a microplate reader at 425 nm. Fusion was normalized to a fully lysed sample with 2% Triton™ and a buffer-only control. % hemolysis=100*[(ABS T-background)−(ABS sample-background)/(ABS T-background)].

[5] = Particle size and polydispersity (PDI) of delivery vehicles by dynamic light scattering; assay type: physicochemical
Experimental: The resulting delivery vehicle complexes were evaluated by dynamic light scattering (DLS) to determine the volume average particle size/diameter (nm) and the size polydispersity index (PDI) within the delivery vehicle complex.
Particle size. Particle sizes and size distributions were measured using a Wyatt DynaPro® Plate Reader III. In general, formulated samples were diluted to 2 ng/μL in 100 µL PBS. Data is reported as the hydrodynamic diameter (in nm) of the cumulant fit of the correlation function, and the polydispersity of that measurement.
as §1

[6] = Table 5, delivery vehicle comprising the peptoid, Formulation D22, fLuc mRNA
[7] = Table 5, delivery vehicle, 37° C. 45 min, pH 5, read-out: Hemolysis at pH 5
[8] = Table 5, delivery vehicle, 37° C. 45 min, pH 7, read-out: Hemolysis at pH 7
[9] = Table 6, comparative peptoid delivery vehicle

| Compound | pKa (TNS) [1] | % Encapsulation [2, 6] | Zeta Potential [3] | hemolysis at 45 min, 150 mM total lipid [4, 7] | hemolysis at 45 min, 150 mM total lipid [4, 8] | PDI [5, 6] | Particle Size (nm) [5, 6] | % Encapsulation [2, 9] | hemolysis at 45 min, 150 mM total lipid ([4]; Table 6, comparative peptoid delivery vehicle, pH 5, read-out: Hemolysis at pH 5) | hemolysis at 45 min, 150 mM total lipid ([4]; Table 6, comparative peptoid delivery vehicle, pH 7, read-out: Hemolysis at pH 7) | PDI [5, 9] | Particle Size (nm) [5, 9] |
| --- | --- | --- | --- | --- | --- | --- | --- | --- | --- | --- | --- | --- |
| CCCCCCCC/C=C\CCCCCCCCN(CC(=O)N(CCCCCCCCCC)CC(=O)N(CCCCCCCC/C=C\CCCCCCCC)CC(=O)N(CCCCCCCCCC)CC(N)=O)C(=O)CNC(CO)CO [Compound 6] | 6.373 | 85.9% | −0.785 | 21.5% | 60.6% | 0.39 | 71.3 nm | – | – | – | – | – |
| CCCCCCCC/C=C\CCCCCCCCN(CC(N)=O)C(=O)CN(CCCCCCCCCC)C(=O)CN(CCCCCCCC/C=C\CCCCCCCC)C(=O)CNC(CO)CO [Compound 7] (H-[N(CH(CH2OH)2)Gly][Gly(Nα-oleyl)][NDecylGly][Gly(Nα-oleyl)]-NH2) | 6.283 | 86.3% | −2.31 | 6.1% | 23.8% | 0.13 | 62.3 nm | – | – | – | – | – |
| CCCCCCCCCCN(CC(N)=O)C(=O)CN(CCCCCCCCCC)C(=O)CN(CCCCCCCCCC)C(=O)CN(CC(CC)CCCC)C(=O)CN(CCCCCCCCCC)C(=O)CN(CCCCCCCCCC)C(=O)CN(CCCCCCCCCC)C(=O)CN(CC(CC)CCCC)C(=O)CNC(CO)CO (centres unmarked) [Compound 8] | 5.786 | – | – | 0.5% | -0.1% | – | – | – | – | – | – | – |
| CCCCCCCC/C=C\CCCCCCCCN(CC(=O)N(CCCCCC)CC(=O)N(CCCCCC)CC(=O)N(CCCCCC)CC(=O)N(CCCCCCCC/C=C\CCCCCCCC)CC(=O)N(CCCCCC)CC(=O)N(CCCCCC)CC(=O)N(CCCCCC)CC(N)=O)C(=O)CNC(CO)CO [Compound 9] | 5.906 | 95.2% | −1.6 | 1.1% | 0.1% | 0.14 | 94.9 nm | – | – | – | – | – |
| CCCCCCCCN(CC(N)=O)C(=O)CN(CCCCCC)C(=O)CN(CCCCCC)C(=O)CN(CCCCCC)C(=O)CN(CCCCCC)C(=O)CN(CCCCCC)C(=O)CN(CCCCCC)C(=O)CN(CCCCCCCC)C(=O)CNC(CO)CO [Compound 10] | 6.052 | 97.0% | −2.71 | 1.1% | 0% | 0.3 | 122.5 nm | – | – | – | – | – |
| CCCCCCN(CC(N)=O)C(=O)CN(CC(CC)CCCC)C(=O)CN(CCCCCC)C(=O)CN(CC(CC)CCCC)C(=O)CN(CCCCCC)C(=O)CN(CC(CC)CCCC)C(=O)CN(CCCCCC)C(=O)CN(CC(CC)CCCC)C(=O)CNC(CO)CO (centres unmarked) [Compound 13] | 5.686 | 82.0% | −5.17 | 1.8% | 0.6% | 0.102 | 122.4 nm | – | – | – | – | – |
| CCCCCCN(CC(N)=O)C(=O)CN(CCCCCC)C(=O)CN(CCCCCC)C(=O)CN(CCCCCC)C(=O)CN(CCCCCC)C(=O)CN(CCCCCC)C(=O)CN(CCCCCC)C(=O)CN(CCCCCC)C(=O)CNC(CO)CO [Compound 14] | 6.825 | 57.3% | −3.14 | 9.1% | 0.2% | Multimodal | 2228.3 nm | – | – | – | – | – |
| CCCCCCCCCCCCN(CC(=O)N(CCCCCC)CC(=O)N(CCCCCC)CC(=O)N(CC(=O)N(CCCCCCCCCCCC)CC(=O)N(CCCCCC)CC(=O)N(CCCCCC)CC(N)=O)CC(CC)CCCC)C(=O)CN(CC(CC)CCCC)C(=O)CNC(CO)CO (centres unmarked) [Compound 15] | 5.909 | 84.5% | −8 | 0.9% | 0.6% | 0.111 | 106.6 nm | – | – | – | – | – |
| CCCCCCCCCCCCN(CC(N)=O)C(=O)CN(CCCCCCCCCCCC)C(=O)CN(CCCCCCCCCCCC)C(=O)CN(CCCCCCCCCCCC)C(=O)CN(CCCCCCCCCCCC)C(=O)CN(CCCCCCCCCCCC)C(=O)CNC(CO)CO [Compound 16] (H-[N(CH(CH2OH)2)Gly][Gly(N-dodecyl)][Gly(N-dodecyl)][Gly(N-dodecyl)][Gly(N-dodecyl)][Gly(N-dodecyl)][Gly(N-dodecyl)]-NH2) | 5.554 | 30.6% | −3.58 | 4.1% | 2.2% | 0.24 | 93.1 nm | – | – | – | – | – |
| CCCCCCCCCCCCN(CC(=O)N(CCCCCC)CC(N)=O)C(=O)CN(CCCCCCCCCCCC)C(=O)CN(CC(CC)CCCC)C(=O)CN(CCCCCC)C(=O)CN(CCCCCCCCCCCC)C(=O)CN(CCCCCCCCCCCC)C(=O)CN(CC(CC)CCCC)C(=O)CNC(CO)CO (centres unmarked) [Compound 17] | 5.656 | 50.3% | −17.8 | 2.1% | 0.3% | 0.11 | 96.7 nm | – | – | – | – | – |
| CCCCCCCCCCN(CC(N)=O)C(=O)CN(CC(CC)CCCC)C(=O)CN(CCCCCCCCCC)C(=O)CN(CCCCCCCCCC)C(=O)CN(CC(CC)CCCC)C(=O)CN(CCCCCCCCCC)C(=O)CNC(CO)CO (centres unmarked) [Compound 43] (H-[N(CH(CH2OH)2)Gly][NDecylGly][N(2-ethylhexyl)Gly][NDecylGly][NDecylGly][N(2-ethylhexyl)Gly][NDecylGly]-NH2) | 4.595 | – | −6.37 | 1.2% | 0.2% | Multimodal | 2058.2 nm | – | – | – | – | – |
| CCCCCCCCCCCCN(CC(N)=O)C(=O)CN(CCCCCCCCCCCC)C(=O)CN(CCCCCCCCCCCC)C(=O)CN(CCCCCCCCCCCC)C(=O)CNCCN(C)C [Compound C13, reference compound] | – | – | – | – | – | – | – | 95.4% | -12.3% | 8.2% | 0.180 | 57.6 nm |
